The test system of data set [1] is Mus musculus. In words: In vivo anti-necroptotic effect in TNFalpha-induced systemic inflammatory response syndrome C57BL/6J mouse model assessed as reduction in hypothermic injury at 10 to 40 mg/kg, ip followed by compound treatment after 1 hr injected moue TNFalpha and measured continuously upto 72 hrs. Format: functional, organism-based. Conditions: dose 10-40 mg/kg, time 73.0 hrs.

The test system of data set [2] is L929. Put plainly: Anti-necroptosis activity against TNFalpha/z-VAD-fmk-induced mouse L929 cell necroptosis model assessed as prevention of necroptosis pretreated with compound for 1 hr followed by treated with TZ for 6 hrs by Hoechst 33342/PI staining based flow cytometric analysis. Format: functional. Conditions: dose 10-250 nmol/L, time 7.0 hrs. Background: Flow cytometry measures light scatter and fluorescence of single cells or particles in a stream.

Data set [3] has as its target T1, Receptor-interacting serine/threonine-protein kinase 1 (Mus musculus) (UniProt Q60855).
T1 sequence (whole entry): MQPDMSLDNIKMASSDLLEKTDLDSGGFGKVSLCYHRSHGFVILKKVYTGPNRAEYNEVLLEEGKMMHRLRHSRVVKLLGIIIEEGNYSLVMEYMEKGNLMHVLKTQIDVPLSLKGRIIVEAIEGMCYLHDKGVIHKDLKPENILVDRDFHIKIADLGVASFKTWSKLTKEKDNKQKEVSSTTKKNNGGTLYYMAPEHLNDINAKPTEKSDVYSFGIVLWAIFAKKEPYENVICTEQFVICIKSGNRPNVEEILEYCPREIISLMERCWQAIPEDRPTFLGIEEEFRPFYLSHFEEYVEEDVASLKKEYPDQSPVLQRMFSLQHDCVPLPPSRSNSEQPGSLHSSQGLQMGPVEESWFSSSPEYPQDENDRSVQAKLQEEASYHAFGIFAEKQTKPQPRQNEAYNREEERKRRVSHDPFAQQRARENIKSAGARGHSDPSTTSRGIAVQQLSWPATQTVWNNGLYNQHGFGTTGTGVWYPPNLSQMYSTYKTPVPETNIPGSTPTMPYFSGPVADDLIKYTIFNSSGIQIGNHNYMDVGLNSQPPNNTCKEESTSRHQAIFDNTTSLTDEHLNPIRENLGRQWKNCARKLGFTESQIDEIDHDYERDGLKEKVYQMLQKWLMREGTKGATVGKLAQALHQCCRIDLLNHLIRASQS
Put plainly: Inhibition of RIPK1 phosphorylation in mouse L929 cells at 250 nM by Western blotting analysis. Particulars: time 0.5-2.5 hrs, TDE = time-dependent effect. The format is cell-based.

In another data set the test system is U-937. Put plainly: Anti-necroptosis activity against TSZ-induced human U937 cell necroptosis model assessed as cell viability pretreated with compound for 1 hr followed by treated with TSZ for 12 hrs. Format: functional, cell-based. Conditions: dose 0.039-10 µM, time 13.0 hrs.
The test system of data set [4] is Mus musculus. In words: In vivo anti-necroptotic effect in TNFalpha-induced systemic inflammatory response syndrome C57BL/6J mouse model assessed as reduction in hypothermic injury by measuring increase in survival at 40 mg/kg, ip followed by compound treatment after 1 hr injected moue TNFalpha and measured continuously upto 72 hrs. Conditions: time 73 hrs. Format: functional.

In data set [5] the target is T2, Mixed lineage kinase domain-like protein (Mus musculus) (UniProt Q9D2Y4).
T2 sequence (whole entry): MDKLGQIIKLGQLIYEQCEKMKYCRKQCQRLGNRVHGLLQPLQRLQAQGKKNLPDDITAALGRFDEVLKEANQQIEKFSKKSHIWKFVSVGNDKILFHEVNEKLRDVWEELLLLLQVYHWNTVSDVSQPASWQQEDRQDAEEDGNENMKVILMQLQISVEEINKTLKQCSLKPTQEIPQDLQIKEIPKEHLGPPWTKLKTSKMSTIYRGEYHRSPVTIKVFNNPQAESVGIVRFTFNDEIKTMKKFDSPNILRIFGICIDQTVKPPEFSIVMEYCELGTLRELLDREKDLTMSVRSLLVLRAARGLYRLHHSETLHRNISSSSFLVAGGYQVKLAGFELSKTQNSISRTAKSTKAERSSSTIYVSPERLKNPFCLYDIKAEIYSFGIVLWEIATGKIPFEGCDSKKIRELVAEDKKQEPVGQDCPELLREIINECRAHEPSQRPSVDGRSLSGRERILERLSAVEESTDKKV
In words: Inhibition of MLKL phosphorylation in mouse L929 cells at 250 nM incubated for 0.5 to 2.5 hrs by Western blotting analysis. Particulars: time 0.5-2.5 hrs. Format: cell-based. In general terms: A western blot detects proteins with antibodies after separation by electrophoresis.

The test system of data set [6] is L929. In words: Anti-necroptosis activity against TNFalpha/z-VAD-fmk-induced mouse L929 cell necroptosis model assessed as cell viability pretreated with compound for 1 hr followed by treated with TZ for 6 hrs. The format is functional, cell-based.
Data set [7] deals with T3, Receptor-interacting serine/threonine-protein kinase 1 (Homo sapiens, UniProt Q13546).
T3 sequence (Q13546 whole entry): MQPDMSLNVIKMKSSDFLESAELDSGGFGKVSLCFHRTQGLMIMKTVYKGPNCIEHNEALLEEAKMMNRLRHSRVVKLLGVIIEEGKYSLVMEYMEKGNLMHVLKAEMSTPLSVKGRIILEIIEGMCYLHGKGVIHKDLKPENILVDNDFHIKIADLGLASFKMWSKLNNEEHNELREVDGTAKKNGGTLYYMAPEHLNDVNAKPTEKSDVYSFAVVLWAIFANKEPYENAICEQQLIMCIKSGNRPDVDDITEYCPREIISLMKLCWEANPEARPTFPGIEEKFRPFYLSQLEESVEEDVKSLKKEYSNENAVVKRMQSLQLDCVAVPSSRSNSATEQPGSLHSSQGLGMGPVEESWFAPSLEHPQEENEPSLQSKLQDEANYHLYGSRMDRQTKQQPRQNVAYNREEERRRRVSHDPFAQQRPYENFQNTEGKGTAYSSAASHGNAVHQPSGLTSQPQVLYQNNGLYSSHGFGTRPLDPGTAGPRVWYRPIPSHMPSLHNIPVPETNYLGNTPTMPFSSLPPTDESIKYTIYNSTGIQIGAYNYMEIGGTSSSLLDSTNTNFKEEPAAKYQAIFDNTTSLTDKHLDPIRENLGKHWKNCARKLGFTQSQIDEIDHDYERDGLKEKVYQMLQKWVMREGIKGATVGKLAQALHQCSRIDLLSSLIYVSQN
Put plainly: Inhibition of RIPK1 (unknown origin) using MBP substrate incubated for 2 hrs by ADP-Glo kinase function assay. (In general: ADP-Glo turns the ADP formed in a reaction into a luminescent signal.)

Data set [8] has as its system HT-29. Put plainly: Anti-necroptosis activity against TS-induced human HT-29 cell necroptosis model assessed as cell viability at 0.039 to 10 uM pretreated with compound for 1 hr followed by treated with TS for 12 hrs. Format: functional, cell-based. Particulars: dose 0.039-10 µM.
Data set [9] has as its system HT-29. In words: Anti-necroptosis activity against TSZ-induced human HT-29 cell necroptosis model assessed as cell viability pretreated with compound for 1 hr followed by treated with TSZ for 12 hrs. The format is functional, cell-based. Conditions: dose 0.039-10 µM, time 13.0 hrs.
For data set [10], the system named is Mus musculus. Put plainly: In vivo anti-necroptotic effect in TNFalpha-induced systemic inflammatory response syndrome C57BL/6J mouse model assessed as reduction in hypothermic injury by measuring increase in survival at 25 mg/kg, ip followed by compound treatment after 1 hr injected moue TNFalpha and measured continuously upto 72 hrs. Format: functional. Conditions: time 73 hrs.

The subject of data set [11] is L929. In words: Anti-necroptosis activity against TNFalpha/z-VAD-fmk-induced mouse L929 cell necroptosis model assessed as increase in viable cells pretreated with compound for 1 hr followed by treated with TZ for 6 hrs by Hoechst 33342/PI staining based flow cytometric analysis. The format is functional. Conditions: time 7.0 hrs.
Data set [12] has as its target Receptor-interacting serine/threonine-protein kinase 3 (Mus musculus) (UniProt Q9QZL0). In words: Inhibition of RIPK3 phosphorylation in mouse L929 cells at 250 nM by Western blotting analysis. The format is cell-based. Conditions: time 0.5-2.5 hrs, TDE = time-dependent effect.
Data set [13] can be described thus: Cytotoxicity against mouse L929 cells by CCK-8 assay. The format is toxicity, cell-based.
The test system of data set [14] is Mus musculus. Put plainly: In vivo anti-necroptotic effect in TNFalpha-induced systemic inflammatory response syndrome C57BL/6J mouse model assessed as reduction in hypothermic injury by measuring increase in survival at 10 mg/kg, ip followed by compound treatment after 1 hr injected moue TNFalpha and measured continuously upto 72 hrs. The format is functional. Conditions: time 73 hrs.

Activity calls are given as the source filed them. No cut-off for these calls is given here.

Chain of Receptor-interacting serine/threonine-protein kinase 3 (Mus musculus) (Q9QZL0 whole entry): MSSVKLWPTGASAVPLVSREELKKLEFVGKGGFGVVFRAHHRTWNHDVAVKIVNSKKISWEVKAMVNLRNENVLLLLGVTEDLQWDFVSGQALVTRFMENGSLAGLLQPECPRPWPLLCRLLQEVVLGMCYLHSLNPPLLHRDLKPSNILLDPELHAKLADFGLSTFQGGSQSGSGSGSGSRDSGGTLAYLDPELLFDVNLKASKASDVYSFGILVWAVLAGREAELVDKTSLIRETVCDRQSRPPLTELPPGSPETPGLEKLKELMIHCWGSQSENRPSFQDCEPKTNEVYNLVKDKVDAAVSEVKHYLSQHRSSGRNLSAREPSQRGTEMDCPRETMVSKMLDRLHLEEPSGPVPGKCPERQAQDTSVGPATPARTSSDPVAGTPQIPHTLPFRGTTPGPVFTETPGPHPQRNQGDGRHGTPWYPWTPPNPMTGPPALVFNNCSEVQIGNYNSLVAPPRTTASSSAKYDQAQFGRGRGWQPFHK

As usually defined, the EC50 is the concentration needed to bring the measured effect to its halfway point. One may read the IC50 as the midpoint of a concentration-inhibition curve. Low values mean higher potency, high ones lower potency. One may read the CC50 as the concentration that lowers cell viability or growth by half. For the compound `O=C(c1ccc(-c2cc3cccnc3[nH]2)cc1)N1CCOCC1`, the outcome with Mus musculus [1] and with L929 [11] was Active. In addition, the Activity entry in the data set with L929 [2], in the data set on U-937 and with HT-29 [9] was “Dose-Dependent Effect” in each case. The inhibition entry in [3] and in data set [12] was “Tde” each time. For the same compound, the survival at 40 mg/kg in the data set with Mus musculus [4] was found to be 100%. The inhibition result in data set [5] was “Active”. Besides, the EC50 with L929 [6] was determined as 56 nM. The compound also registered an IC50 in data set [7] of 88 nM. For the same compound, in the data set on HT-29 [8], the result was inactive. The survival at 25 mg/kg in the data set on Mus musculus [10] came out at 100%. In [13], this compound registered a CC50 of more than 50000 nM. Moreover, the survival at 10 mg/kg with Mus musculus [14] turned out to be 75%.

These data come from ChEMBL document CHEMBL5385887, “Discovery of Sibiriline derivatives as novel receptor-interacting protein kinase 1 inhibitors” (Eur J Med Chem, 2023).
